SMILES strings stand for the structures.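 Dose response: 5 concentrations. Exposure: 48 h. Format: 96-well plates. Endpoint: linear interpolation; highest concentration if not reached. At the TGI there is no net growth.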

This assay relates to RXF-631 renal. Nature of the assay: NCI-60 cell line screen, 48 h.

For `Nc1ccc(-c2nc3ccccc3s2)cc1`, the TGI was 46.2 µM.

Values taken from PubChem BioAssay (NCI).
